Data set [1] addresses T1, 5-hydroxytryptamine receptor 2C (Homo sapiens, UniProt P28335).
T1 sequence (P28335 whole entry): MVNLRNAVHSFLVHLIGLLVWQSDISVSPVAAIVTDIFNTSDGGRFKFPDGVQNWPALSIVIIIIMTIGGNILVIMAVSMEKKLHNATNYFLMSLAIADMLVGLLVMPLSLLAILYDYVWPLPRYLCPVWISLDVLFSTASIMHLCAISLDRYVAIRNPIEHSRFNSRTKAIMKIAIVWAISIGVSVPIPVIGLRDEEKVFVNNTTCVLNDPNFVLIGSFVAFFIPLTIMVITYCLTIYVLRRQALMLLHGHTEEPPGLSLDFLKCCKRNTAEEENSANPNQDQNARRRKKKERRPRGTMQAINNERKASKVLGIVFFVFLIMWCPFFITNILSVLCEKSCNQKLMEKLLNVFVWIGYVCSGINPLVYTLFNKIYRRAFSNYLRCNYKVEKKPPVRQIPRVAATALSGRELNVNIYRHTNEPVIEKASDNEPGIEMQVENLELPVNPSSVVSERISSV
Nature of the data set: Binding affinity to 5HT2C receptor.

In data set [2] the target is T2, 5-hydroxytryptamine receptor 2B (Homo sapiens, UniProt P41595). Nature of the data set: Binding affinity to 5HT2B receptor.
For data set [3], the target named is T2, 5-hydroxytryptamine receptor 2B. Nature of the data set: Agonist activity at 5HT2B receptor. The data set is classed as functional.
Data set [4] has as its target T1, 5-hydroxytryptamine receptor 2C. Nature of the data set: Agonist activity at 5HT2C receptor. The data set is classed as functional.
Data set [5] addresses T3, 5-hydroxytryptamine receptor 2A (Homo sapiens, UniProt P28223). Nature of the data set: Binding affinity to 5HT2A receptor.
For data set [6], the target named is T3, 5-hydroxytryptamine receptor 2A. Nature of the data set: Agonist activity at 5HT2A receptor. The data set is classed as functional.
For data set [7], the target named is T4, 5-hydroxytryptamine receptor 2C (Homo sapiens) (UniProt P28335).
T4 sequence (whole entry): T1 sequence (P28335 whole entry)
Nature of the data set: Agonist activity at 5HT2C receptor relative to control. The data set is classed as functional. Set-up: concentration or dose not given beside the values.

The target of data set [8] is T3, 5-hydroxytryptamine receptor 2A. Nature of the data set: Agonist activity at 5HT2A receptor relative to control. The class given is functional.
The species entered for a further data set is Macaca mulatta. Nature of the data set: Activity at MAPK in monkey heart valve […] cells.
Data set [9] in a line: Bioavailability in dog. The data set is classed as ADME, organism-based, Canis lupus familiaris. Conditions: in vivo.
Data set [10] can be described thus: Bioavailability in rat. The data set is classed as ADME, organism-based. The following applies: in vivo.
A short description of data set [11]: Selectivity ratio of Ki for 5HT2B receptor to Ki for 5HT2C receptor.
For data set [12], the system named is Rattus norvegicus. Nature of the data set: Inhibition of spontaneous nocturnal food intake in po dosed Sprague-Dawley rat measured up to 840 mins. The class given is functional, organism-based.
The species entered for data set [13] is Rattus norvegicus. Nature of the data set: Effect on 5HT2A receptor-mediated head twitches in rat. The data set is classed as functional, organism-based.
For data set [14], the species on record is Rattus norvegicus. Nature of the data set: Ex vivo agonist activity at 5HT2B receptor in rat stomach fundus. The class given is functional, organism-based.
The subject of data set [15] is Rattus norvegicus. Nature of the data set: Inhibition of spontaneous nocturnal food intake in po dosed Sprague-Dawley rat measured up to 25 hrs. The data set is classed as functional, organism-based.
The nature of data set [16]: Half life in human hepatocytes. The class given is ADME, cell-based, Liver, Hepatocyte.
Data set [17] is described as follows: Half life in human liver microsomes. The data set is classed as ADME, Microsome. A general note: Liver microsomes are a subcellular fraction often used to study metabolism.
The nature of data set [18]: Ratio of free drug level in brain to plasma in Sprague-Dawley rat. The data set is classed as ADME, cell-free. The following applies: brain and plasma.
The nature of data set [19]: Ratio of drug level in RBC to plasma in Sprague-Dawley rat. The data set is classed as ADME. Conditions: in vivo.
Data set [20] in a line: Ratio of total drug level in brain to plasma in Sprague-Dawley rat. The class given is ADME, cell-free. The following applies: brain and plasma.
A further data set relates to Plasma. Nature of the data set: Fraction unbound in Sprague-Dawley rat plasma. The class given is ADME, cell-free.

Activity calls are given as the source filed them.

In general, Ki refers to a dissociation constant, usually derived from enzyme kinetics or from competition with a known ligand. For orientation: EC50 means the concentration that produces a half-maximal response. The term bioavailability denotes dose-corrected exposure relative to a reference, in per cent. The half-life is the time needed for the level to fall by half in the phase considered. Usually Kp stands for tissue or fluid exposure divided by exposure in the circulation.

T2 sequence (P41595 whole entry): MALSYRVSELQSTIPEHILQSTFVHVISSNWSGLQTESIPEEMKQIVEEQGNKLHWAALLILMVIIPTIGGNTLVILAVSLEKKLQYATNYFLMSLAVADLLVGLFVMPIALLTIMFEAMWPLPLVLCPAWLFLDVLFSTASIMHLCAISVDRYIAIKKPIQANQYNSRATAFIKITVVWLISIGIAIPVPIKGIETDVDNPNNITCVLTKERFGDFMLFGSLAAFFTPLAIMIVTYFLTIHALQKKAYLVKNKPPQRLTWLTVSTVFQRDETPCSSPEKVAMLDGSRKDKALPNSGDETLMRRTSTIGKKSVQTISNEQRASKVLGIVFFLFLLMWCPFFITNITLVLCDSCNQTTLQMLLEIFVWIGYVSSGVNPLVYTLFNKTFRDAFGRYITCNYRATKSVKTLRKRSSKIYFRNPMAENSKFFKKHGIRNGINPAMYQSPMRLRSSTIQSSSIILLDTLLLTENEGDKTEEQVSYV
T3 sequence (P28223 whole entry): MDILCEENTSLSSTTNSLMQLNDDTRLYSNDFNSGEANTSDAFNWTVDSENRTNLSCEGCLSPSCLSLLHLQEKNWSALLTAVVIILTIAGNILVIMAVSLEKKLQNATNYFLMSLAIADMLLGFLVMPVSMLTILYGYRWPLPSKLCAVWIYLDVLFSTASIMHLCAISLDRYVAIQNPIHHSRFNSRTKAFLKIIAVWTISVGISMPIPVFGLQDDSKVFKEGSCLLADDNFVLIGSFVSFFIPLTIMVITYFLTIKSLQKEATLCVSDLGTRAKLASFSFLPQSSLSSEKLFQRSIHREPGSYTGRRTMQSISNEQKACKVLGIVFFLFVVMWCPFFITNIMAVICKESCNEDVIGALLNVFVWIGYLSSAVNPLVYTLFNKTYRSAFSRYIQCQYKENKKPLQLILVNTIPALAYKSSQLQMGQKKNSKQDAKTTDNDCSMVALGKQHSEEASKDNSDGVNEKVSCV

On to `NCc1cccc(C(=O)NCc2ccc(OC(F)(F)F)cc2)c1`, for which the Ki in data set [1] is 585 nM.

Consider `Cc1noc(C)c1COc1cc(F)c(COC(=O)N2[C@H](C)CNC[C@@H]2C)c(F)c1`, for which the Ki in [2] (read-out: Ki) is over 10000 nM; in data set [1], 43 nM.

Take `C[C@H]1CC[C@@H](Oc2c(F)cc(CNC(=O)[C@@H]3CCCN3)cc2F)CC1`: the EC50 is over 10000 nM in data set [3], 44 nM in [4] and 153 nM in data set [6]. The values for the Ki entry in data set [2], in data set [5] and in data set [1] were “Not Active”, “Not Active” and 25 nM, respectively. In data set [7], this molecule registered an Activity of 46%.

Consider `CC1(C)CCC(Oc2cc(F)c(CNC(=O)[C@@H]3CCCN3)cc2F)CC1`, for which the EC50 is over 10000 nM in [3], 1 nM in data set [4] and 130 nM in [6]. The Ki was 1670 nM in [2] (read-out: Ki), 13.7 nM in [5] (read-out: Ki) and 1.8 nM in [1]. Besides, the values for the Activity in data set [8] and in data set [7] were 98% and 88%, respectively.

For `O=C(NCc1ccc(Oc2cccc(F)c2)cc1)[C@@H]1CCCN1`, the results for the Ki in data set [2] (read-out: Ki) and in [1] were 2400 nM and 23 nM, respectively. Further, the midpoint of the response in [4], the EC50, lay at 38 nM. The Activity in data set [7] was 46%.

With `O=C(NCc1ccc(C2CCCCC2)cc1)[C@@H]1CCCN1`, the values for the Ki in data set [2] (read-out: Ki) and in [1] were 4120 nM and 4.4 nM, respectively. Further, in [4], the EC50 was 88 nM. The same molecule displayed an Activity in [7] of 53%.

With `COc1cc(OC2CCC(C)(C)CC2)c(F)cc1CNC(=O)[C@@H]1CCCN1`, the EC50 in data set [3] is over 10000 nM; in [4], 2.3 nM; in data set [6] it was 440 nM. In addition, the outcome in the data set listed under Macaca mulatta, in the data set filed under Rattus norvegicus [13] and in the data set listed under Rattus norvegicus [14] was inactive. The Ki in data set [2] (read-out: Ki) turned out to be 3940 nM; in data set [5] (read-out: Ki), 12.8 nM; in data set [1] it was 0.9 nM. Further, the bioavailability in data set [9] and in data set [10] was 5.5% throughout. Further, the Ratio Ki in data set [11] stood at 10000. The Activity entry with Rattus norvegicus [12] is “Dose-dependent effect”; in [8] it was 76%; in the data set on Rattus norvegicus [15], “Dose-dependent effect”; in data set [7] it was 95%. The half-life in [16] was determined as 7.33 h; in data set [17], 1.67 h. Besides, the Kp uu in data set [18] is 0.4. The Ratio in data set [19] is recorded as 0.7. Moreover, in [20], the Kp worked out at 10. Also, the fraction unbound in the data set on Plasma amounted to 3.6%.

Consider `O=C(NCc1ccc(OC(F)(F)F)cc1)C1CCNC1` (centres undefined), for which the Ki in data set [1] was found to be 643 nM.

In data set [4], `O=C(NCc1ccc(-c2cc(Cl)cc(Cl)c2)cc1)[C@@H]1CCCN1` came in with an EC50 of 183 nM. In data set [1], this molecule displayed a Ki of 8 nM. Further, the Activity in data set [7] worked out at 65%.

Consider `COc1cc(OCC2CCCCC2)c(F)cc1CNC(=O)[C@@H]1CCCN1`, for which the EC50 in [3] came to 4030 nM; in [4], 4.97 nM; in data set [6] it was 500 nM. The Ki result in data set [2] was “Not Active”; in data set [5], “Not Active”; in [1], 1.7 nM. In addition, the Activity in data set [7] is 85%.

On to `O=C(NCc1ccc(-c2ccc(Cl)cc2)cc1F)N1CCNCC1`, for which the Ki in [2] (read-out: Ki) was found to be 3500 nM; in data set [1], 4 nM.

With `O=C(NCc1ccc(OCc2ccccc2)cc1)[C@@H]1CCCN1`, the Ki is 1720 nM in [2] (read-out: Ki) and 20 nM in data set [1]. Also, it took 73 nM to reach a half-maximal effect in [4] (EC50). The molecule further gave an Activity in [7] of 40%.

For the molecule `C[C@@H]1CNC[C@H](C)N1C(=O)OCc1ccccc1`, in data set [1], the Ki was 83 nM.

For `O=C(NCc1ccc(OC(F)(F)F)cc1)[C@@H]1CCCN1`, the values for the Ki in data set [2] (read-out: Ki) and in [1] were over 10000 nM and 324 nM, respectively. Also, in data set [11], the Ratio Ki was over 1000.

The values are drawn from ChEMBL document CHEMBL1156305 (Bioorg Med Chem Lett, 2010).
